pKi: −log10 of the molar value.
What was measured:
Type in all cases: biochemical
[1] = biological target: T1, AKT1 (Homo sapiens, UniProt P31749); assay: 26-kinase panel mobility shift assay, single concentration; details: read-out: % Inhibition AKT1
T1 construct: purchased Perkin Elmer ProfilerPro assay kit 1
Method: Mobility Shift Assay Protocol
(§1) Screening of 26 kinases using a mobility shift assay
(§2) A mobility shift assay to determine kinase inhibition was carried out using a
(§3) modified version of the ProfilerPro assay kit 1 (Perkin Elmer, Coventry, UK)
(§4) including MPS1 and Aurora B. Each kit contained an enzyme plate, a substrate
(§5) plate, reconstitution buffer, 1 M DTT, protease inhibitor cocktail and termination
(§6) buffer. Test compounds were added as a solution in DMSO.
(§7) peptide phosphorylation assay was carried out as per the manufacturer’s
(§8) instructions. The electrophoretic separation and analysis of the phosphorylated
(§9) and non-phosphorylated peptides was carried out on a 4-sipper chip using a
(§10) LabChip EZReader II (Perkin Elmer). Results were expressed as % inhibition of
(§11) peptide phosphorylation relative to control wells for 0 % (no test compound) and
(§12) 100 % (no ATP) inhibition. The percentage inhibition was calculated using the
(§13) % Inhibition = [1 - (% Conversion Sample / % Conversion 0% Inhibition Control)] x 100

[2] = biological target: T2, Erk1 (Homo sapiens, UniProt P27361); assay: as above; details: read-out: % Inhibition Erk1
T2 construct: purchased Perkin Elmer (ProfilerPro assay kit 1)
Method: as §2, §3, §4, §5, §6, §7, §8, §9, §10, §11, §12, §13

[3] = biological target: T3, CK1d (Homo sapiens, UniProt P48730); assay: as above; details: read-out: % Inhibition CK1d
T3 construct: purchased Perkin Elmer (ProfilerPro assay kit 1)
Method: as §2, §3, §4, §5, §6, §7, §8, §9, §10, §11, §12, §13

[4] = biological target: Aurora B (Homo sapiens, UniProt Q96GD4); details: for pKi: calculated from mean IC50 using the Cheng-Prusoff equation, read-out: AurB Ki; for AurB ligand efficiency (LE): from Ki;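 for all read-outs here: aurora B inhibition measured in a mobility shift assay, underlying mean IC50 taken from two independent duplicate runs at 8 compound concentrations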
Method: IC50 values were obtained for an expanded version of the fragment library using the previously described mobility shift assay.[44] Subsequently, Ki values were estimated from IC50 values to allow better comparison of the activity against targets which were measured at different substrate concentrations (Supplementary data Table 1).
IC50 values for MPS1, Aurora A and Aurora B inhibition were determined as previously described,[44] and Ki values were estimated from the mean IC50 values using the Cheng-Prusoff equation.[48]
Kinase [ATP] (M) [Enzyme] (nM) [Peptide Substrate] (M) MgCl2 (mM)
For all compounds, IC50 values for MPS1, Aurora A, and Aurora B were determined
using MPS1 and Aurora A/B mobility shift assays as described previously.1 IC50
values were calculated from a four-parameter logistic fit of percentage inhibition
versus concentration (at 8 compound concentrations) using GraphPad Prism 5
(GraphPad Software, Inc., CA, USA). Mean IC50 values were determined from two
independent measurements each carried out in duplicate. Ki values were estimated
from the mean IC50 values using the Cheng-Prusoff equation.

[5] = biological target: T4, LYN (Homo sapiens, UniProt P07948); assay: 26-kinase panel mobility shift assay, single concentration; details: read-out: % Inhibition LYN
T4 construct: purchased Perkin Elmer (ProfilerPro assay kit 1)
T4 sequence (P07948 whole entry): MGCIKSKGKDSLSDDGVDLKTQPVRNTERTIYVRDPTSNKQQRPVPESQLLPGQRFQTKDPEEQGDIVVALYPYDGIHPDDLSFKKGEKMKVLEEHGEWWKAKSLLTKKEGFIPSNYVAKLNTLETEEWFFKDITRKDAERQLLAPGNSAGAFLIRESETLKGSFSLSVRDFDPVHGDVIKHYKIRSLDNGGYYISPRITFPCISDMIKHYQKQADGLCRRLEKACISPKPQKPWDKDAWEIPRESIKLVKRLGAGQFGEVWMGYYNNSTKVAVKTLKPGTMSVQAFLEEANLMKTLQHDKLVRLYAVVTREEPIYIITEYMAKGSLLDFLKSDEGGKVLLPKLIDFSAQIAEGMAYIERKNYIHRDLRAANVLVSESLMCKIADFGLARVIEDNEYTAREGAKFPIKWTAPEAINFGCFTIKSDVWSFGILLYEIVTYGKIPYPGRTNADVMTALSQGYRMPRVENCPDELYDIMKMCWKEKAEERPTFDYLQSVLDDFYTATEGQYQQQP
Method: as §2, §3, §4, §5, §6, §7, §8, §9, §10, §11, §12, §13

[6] = biological target: T5, PKCζ (Homo sapiens, UniProt Q05513); assay: as above; details: read-out: % Inhibition PKC
T5 construct: purchased Perkin Elmer (ProfilerPro assay kit 1)
T5 sequence (Q05513 1-592): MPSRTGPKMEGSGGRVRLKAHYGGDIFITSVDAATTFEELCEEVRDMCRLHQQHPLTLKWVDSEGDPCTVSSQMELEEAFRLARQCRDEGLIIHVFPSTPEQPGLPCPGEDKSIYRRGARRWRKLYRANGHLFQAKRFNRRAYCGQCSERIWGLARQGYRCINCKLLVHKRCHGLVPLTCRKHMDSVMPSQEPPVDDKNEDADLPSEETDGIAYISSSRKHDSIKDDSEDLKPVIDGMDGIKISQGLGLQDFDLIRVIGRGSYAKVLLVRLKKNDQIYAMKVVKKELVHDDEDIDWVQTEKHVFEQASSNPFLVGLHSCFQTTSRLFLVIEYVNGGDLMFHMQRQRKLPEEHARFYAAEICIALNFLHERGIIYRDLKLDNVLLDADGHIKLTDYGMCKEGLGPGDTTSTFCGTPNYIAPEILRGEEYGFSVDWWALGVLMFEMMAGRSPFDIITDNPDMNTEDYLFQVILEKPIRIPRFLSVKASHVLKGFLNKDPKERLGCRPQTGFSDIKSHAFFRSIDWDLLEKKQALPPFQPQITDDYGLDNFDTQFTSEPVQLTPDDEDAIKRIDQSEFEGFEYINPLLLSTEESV
Method: (§14) In order to test the biochemical activity of our fragment library, a panel of 26 structurally diverse protein kinases was used.
Mobility Shift Assay Protocol
as §1, §2, §3, §4, §5, §6
final concentration. […] The
as §7, §8, §9, §10, §11, §12, §13

[7] = biological target: T6, PKD2 (Homo sapiens, UniProt Q9BZL6); assay: as above; details: read-out: % Inhibition PKD2
T6 construct: purchased Perkin Elmer (ProfilerPro assay kit 1)
T6 sequence (Q9BZL6 1-878): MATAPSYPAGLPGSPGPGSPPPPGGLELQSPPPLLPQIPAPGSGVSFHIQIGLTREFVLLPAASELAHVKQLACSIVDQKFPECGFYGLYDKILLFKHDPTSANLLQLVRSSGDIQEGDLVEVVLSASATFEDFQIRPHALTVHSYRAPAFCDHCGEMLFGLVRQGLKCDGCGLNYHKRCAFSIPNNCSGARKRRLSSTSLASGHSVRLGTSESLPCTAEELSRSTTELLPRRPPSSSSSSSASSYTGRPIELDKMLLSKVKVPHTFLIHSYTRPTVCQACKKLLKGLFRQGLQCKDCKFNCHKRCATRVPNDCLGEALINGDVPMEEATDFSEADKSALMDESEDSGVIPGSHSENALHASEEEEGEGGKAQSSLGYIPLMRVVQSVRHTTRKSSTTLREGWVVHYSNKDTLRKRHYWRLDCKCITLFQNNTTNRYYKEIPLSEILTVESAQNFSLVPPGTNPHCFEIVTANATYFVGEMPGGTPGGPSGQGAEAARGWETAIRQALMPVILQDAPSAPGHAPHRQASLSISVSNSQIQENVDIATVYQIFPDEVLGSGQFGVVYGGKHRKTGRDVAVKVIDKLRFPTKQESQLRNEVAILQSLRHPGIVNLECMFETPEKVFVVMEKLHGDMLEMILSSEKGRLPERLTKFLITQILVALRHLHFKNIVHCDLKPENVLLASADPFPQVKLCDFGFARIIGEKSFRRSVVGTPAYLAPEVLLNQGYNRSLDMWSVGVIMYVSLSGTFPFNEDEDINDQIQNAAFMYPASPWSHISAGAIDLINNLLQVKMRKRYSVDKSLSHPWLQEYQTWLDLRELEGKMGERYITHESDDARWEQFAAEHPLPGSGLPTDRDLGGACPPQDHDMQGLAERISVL
Method: as §14, §1, §2, §3, §4, §5, §6, §7, §8, §9, §10, §11, §12, §13

[8] = biological target: T7, AurA (Homo sapiens, UniProt O14965); assay: as above; details: read-out: % Inhibition AurA
T7 construct: purchased Perkin Elmer (ProfilerPro assay kit 1)
T7 sequence (O14965 1-403): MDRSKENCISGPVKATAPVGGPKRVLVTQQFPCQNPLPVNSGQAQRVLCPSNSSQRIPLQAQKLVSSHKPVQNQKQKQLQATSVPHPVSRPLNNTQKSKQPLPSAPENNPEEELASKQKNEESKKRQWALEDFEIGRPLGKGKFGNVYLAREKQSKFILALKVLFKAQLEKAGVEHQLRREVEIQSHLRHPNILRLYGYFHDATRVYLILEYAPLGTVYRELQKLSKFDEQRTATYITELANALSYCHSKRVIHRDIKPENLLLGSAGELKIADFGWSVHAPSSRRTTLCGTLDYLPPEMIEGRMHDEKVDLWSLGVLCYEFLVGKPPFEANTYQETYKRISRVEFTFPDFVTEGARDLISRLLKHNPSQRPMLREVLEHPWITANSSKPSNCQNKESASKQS
Method: Mobility Shift Assay Protocol
as §1, §2, §3, §4, §5, §6, §7, §8, §9, §10, §11, §12, §13

[9] = biological target: T8, PKA (Homo sapiens, UniProt P17612); assay: as above; details: read-out: % Inhibition PKA
T8 construct: purchased Perkin Elmer (ProfilerPro assay kit 1)
Method: as §14
Mobility Shift Assay Protocol
as §1, §2, §3, §4, §5, §6
final concentration. […] The
as §7, §8, §9, §10, §11, §12, §13

[10] = biological target: T9, FYN (Homo sapiens, UniProt P06241); assay: as above; details: read-out: % Inhibition FYN
T9 construct: purchased Perkin Elmer (ProfilerPro assay kit 1)
T9 sequence (P06241 whole entry): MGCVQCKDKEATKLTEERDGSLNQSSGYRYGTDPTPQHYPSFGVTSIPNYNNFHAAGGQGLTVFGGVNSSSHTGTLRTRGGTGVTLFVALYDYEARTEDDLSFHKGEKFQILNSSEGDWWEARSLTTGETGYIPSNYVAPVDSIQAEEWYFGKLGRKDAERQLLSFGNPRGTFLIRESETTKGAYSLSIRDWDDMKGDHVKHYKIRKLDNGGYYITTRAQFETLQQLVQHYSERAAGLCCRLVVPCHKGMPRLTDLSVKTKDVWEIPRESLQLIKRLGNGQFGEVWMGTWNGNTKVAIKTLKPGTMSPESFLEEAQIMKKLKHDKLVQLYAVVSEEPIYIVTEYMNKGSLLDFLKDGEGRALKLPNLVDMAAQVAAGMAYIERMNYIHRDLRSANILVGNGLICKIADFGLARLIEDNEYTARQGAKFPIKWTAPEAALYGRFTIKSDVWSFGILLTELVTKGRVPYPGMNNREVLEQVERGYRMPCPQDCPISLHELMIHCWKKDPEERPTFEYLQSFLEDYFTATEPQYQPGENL
Method: as §2, §3, §4, §5, §6, §7, §8, §9, §10, §11, §12, §13

[11] = biological target: T10, MET (Homo sapiens, UniProt P08581); assay: as above; details: read-out: % Inhibition MET
T10 construct: purchased Perkin Elmer (ProfilerPro assay kit 1)
T10 sequence (P08581 25-1390): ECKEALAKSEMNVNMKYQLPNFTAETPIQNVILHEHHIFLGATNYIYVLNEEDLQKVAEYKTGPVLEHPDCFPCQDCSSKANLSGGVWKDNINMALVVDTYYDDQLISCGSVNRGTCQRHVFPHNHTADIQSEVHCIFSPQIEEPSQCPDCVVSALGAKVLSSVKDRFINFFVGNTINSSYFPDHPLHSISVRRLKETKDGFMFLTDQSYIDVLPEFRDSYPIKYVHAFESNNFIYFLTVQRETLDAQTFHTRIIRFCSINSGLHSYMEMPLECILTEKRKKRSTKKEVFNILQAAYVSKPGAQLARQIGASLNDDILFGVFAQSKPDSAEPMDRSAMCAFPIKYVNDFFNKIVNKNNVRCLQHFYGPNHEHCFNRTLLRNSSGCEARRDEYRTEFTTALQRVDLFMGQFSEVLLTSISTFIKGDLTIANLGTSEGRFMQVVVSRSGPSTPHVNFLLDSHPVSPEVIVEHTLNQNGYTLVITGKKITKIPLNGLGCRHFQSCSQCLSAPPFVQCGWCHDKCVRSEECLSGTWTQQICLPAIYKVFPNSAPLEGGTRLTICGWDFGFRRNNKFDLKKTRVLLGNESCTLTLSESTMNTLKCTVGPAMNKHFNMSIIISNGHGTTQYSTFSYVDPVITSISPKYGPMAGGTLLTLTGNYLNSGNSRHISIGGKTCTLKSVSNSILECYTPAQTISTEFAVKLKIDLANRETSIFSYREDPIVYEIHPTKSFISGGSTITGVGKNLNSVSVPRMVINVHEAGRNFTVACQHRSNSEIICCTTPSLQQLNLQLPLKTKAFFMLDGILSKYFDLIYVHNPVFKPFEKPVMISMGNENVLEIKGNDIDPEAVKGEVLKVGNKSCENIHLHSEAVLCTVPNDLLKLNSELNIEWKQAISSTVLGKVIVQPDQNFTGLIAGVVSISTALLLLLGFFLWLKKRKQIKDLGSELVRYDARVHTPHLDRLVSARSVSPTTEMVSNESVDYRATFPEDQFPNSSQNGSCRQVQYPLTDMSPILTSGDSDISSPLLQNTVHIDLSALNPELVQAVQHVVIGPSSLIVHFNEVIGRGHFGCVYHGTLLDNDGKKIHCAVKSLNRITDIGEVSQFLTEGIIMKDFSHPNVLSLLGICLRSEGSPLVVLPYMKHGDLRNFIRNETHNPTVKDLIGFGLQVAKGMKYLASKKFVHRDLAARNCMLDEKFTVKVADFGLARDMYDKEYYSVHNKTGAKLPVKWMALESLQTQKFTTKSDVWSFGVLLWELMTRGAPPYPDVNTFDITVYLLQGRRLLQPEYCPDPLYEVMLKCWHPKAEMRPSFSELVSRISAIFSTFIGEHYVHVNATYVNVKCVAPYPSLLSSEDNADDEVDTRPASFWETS
Method: as §14
Mobility Shift Assay Protocol
as §1, §2, §3, §4, §5, §6
final concentration. […] The
as §7, §8, §9, §10, §11, §12, §13

[12] = biological target: T11, ABL (Homo sapiens, UniProt P00519); assay: as above; details: read-out: % Inhibition ABL
T11 construct: purchased Perkin Elmer ProfilerPro assay kit 1
T11 sequence (P00519 whole entry): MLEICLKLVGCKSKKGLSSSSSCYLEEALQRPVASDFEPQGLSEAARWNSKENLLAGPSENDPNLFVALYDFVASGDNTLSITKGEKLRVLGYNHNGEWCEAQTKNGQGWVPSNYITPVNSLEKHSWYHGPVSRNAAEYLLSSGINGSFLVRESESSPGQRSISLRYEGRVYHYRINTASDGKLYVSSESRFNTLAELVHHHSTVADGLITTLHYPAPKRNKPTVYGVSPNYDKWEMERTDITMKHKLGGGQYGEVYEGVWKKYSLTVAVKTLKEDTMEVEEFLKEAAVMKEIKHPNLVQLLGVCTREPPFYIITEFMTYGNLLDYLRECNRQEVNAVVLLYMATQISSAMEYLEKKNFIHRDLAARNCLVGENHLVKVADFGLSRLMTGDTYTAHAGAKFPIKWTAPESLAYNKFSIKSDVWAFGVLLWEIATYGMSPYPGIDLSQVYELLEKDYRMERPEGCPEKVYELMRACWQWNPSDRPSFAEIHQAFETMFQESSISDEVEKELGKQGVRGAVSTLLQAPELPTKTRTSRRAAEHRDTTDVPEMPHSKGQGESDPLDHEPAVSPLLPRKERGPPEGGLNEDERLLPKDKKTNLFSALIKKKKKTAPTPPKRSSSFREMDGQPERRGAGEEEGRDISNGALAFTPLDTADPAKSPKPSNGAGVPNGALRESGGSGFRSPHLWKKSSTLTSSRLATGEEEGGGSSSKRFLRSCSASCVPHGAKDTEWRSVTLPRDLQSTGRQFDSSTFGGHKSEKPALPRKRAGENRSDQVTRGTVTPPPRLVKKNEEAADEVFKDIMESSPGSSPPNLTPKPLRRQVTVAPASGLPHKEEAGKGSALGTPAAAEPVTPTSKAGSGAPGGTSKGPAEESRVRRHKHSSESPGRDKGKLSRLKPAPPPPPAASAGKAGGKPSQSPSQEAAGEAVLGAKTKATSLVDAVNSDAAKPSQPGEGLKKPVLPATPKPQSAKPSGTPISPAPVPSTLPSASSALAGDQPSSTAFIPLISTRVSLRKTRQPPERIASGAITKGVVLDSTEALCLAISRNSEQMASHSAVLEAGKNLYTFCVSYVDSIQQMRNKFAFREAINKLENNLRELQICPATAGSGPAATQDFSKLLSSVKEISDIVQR
Method: Mobility Shift Assay Protocol
as §1, §2, §3, §4, §5, §6, §7, §8, §9, §10, §11, §12, §13

[13] = biological target: T12, RSK1 (Homo sapiens, UniProt Q15418); assay: as above; details: read-out: % Inhibition RSK1
T12 construct: purchased Perkin Elmer (ProfilerPro assay kit 1)
T12 sequence (Q15418 whole entry): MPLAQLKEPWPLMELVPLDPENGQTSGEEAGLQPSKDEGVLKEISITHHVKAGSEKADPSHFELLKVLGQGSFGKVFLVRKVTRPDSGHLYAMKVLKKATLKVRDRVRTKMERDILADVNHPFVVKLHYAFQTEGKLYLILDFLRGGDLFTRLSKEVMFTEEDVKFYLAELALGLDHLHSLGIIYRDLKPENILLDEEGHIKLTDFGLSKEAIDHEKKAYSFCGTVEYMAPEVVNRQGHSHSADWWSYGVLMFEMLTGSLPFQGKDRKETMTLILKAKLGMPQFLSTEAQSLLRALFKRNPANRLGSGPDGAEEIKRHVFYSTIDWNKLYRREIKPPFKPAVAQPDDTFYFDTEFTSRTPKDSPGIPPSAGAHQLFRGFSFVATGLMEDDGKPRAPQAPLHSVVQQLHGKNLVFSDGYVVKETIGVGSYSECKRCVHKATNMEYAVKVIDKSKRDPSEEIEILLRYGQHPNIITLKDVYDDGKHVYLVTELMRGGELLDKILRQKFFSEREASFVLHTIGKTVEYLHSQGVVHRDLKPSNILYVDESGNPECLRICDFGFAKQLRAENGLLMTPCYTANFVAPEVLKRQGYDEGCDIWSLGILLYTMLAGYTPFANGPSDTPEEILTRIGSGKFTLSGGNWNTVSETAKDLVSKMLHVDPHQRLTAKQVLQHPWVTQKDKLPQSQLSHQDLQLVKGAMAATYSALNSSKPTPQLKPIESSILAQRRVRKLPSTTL
Method: Mobility Shift Assay Protocol
as §1, §2, §3, §4, §5, §6, §7, §8, §9, §10, §11, §12, §13

[14] = biological target: T13, MAPKAPK2 (Homo sapiens, UniProt P49137); assay: as above; details: read-out: % Inhibition MAPKAPK2
T13 construct: purchased Perkin Elmer (ProfilerPro assay kit 1)
Method: as §2, §3, §4, §5, §6, §7, §8, §9, §10, §11, §12, §13

T1 sequence (P31749 whole entry): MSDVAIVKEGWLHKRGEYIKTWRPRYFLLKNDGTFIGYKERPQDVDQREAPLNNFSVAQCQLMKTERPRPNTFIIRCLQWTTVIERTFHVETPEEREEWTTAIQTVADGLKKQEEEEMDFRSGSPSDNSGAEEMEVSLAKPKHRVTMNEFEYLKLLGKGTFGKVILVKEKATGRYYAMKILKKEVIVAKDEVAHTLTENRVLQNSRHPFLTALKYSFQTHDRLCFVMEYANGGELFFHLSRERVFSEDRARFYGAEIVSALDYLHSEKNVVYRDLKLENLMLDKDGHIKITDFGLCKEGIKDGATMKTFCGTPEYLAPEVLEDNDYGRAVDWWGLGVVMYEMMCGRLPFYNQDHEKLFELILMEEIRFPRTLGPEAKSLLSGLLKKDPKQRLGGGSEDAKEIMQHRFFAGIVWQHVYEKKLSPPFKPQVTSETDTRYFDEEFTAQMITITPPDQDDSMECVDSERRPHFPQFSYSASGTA

SMILES | inhibition at 100 µM [1] | inhibition at 100 µM [2] | inhibition at 100 µM [3] | pKi [4] | AurB ligand efficiency (LE) [4] | inhibition at 100 µM [5] | inhibition at 100 µM [6] | inhibition at 100 µM [7] | inhibition at 100 µM [8] | inhibition at 100 µM [9] | inhibition at 100 µM [10] | inhibition at 100 µM [11] | inhibition at 100 µM [12] | inhibition at 100 µM [13] | inhibition at 100 µM [14]
Nc1ccc[nH]c1=O [Compound 1, 3-aminopyridin-2-one] | 42% | 9% | 45% | 3.80 | 0.64 | 15% | 27% | 10% | 58% | 0% | 11% | 33% | 5% | 19% | 25%
Cn1cc(-c2c[nH]c(=O)c(N)c2)cn1 [Compound 2, 3-Amino-5-(1-methyl-1H-pyrazol-4-yl)pyridin-2(1H)-one] | 97% | 62% | 72% | 5.49 | 0.53 | 49% | 83% | 67% | 100% | 66% | 34% | 81% | 58% | 89% | 97%
COc1ncc(-c2ccncc2)cc1N [Compound 5, 6-Methoxy-3,4′-bipyridin-5-amine] | 22% | 20% | 38% | 4.19 | 0.38 | 15% | 5% | 26% | 46% | 52% | 9% | 18% | 26% | 23% | 19%
Nc1cc(-c2ccnc3ccccc23)c[nH]c1=O [Compound 6] | 15% | 22% | 37% | 4.38 | 0.33 | 27% | 17% | 36% | 62% | 48% | 40% | 19% | 66% | 10% | 32%
CNc1nccc(-c2c[nH]c(=O)c(N)c2)n1 [Compound 7] | 89% | 52% | 79% | 4.82 | 0.41 | 63% | 37% | 70% | 98% | 81% | 66% | 76% | 67% | 91% | 79%
